Data: PubChem BioAssay (NCI)
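Protocol summary: plate cells (96-well), add compound at 5 concentrations, incubate 48 h, interpolate endpoints linearly. Abbreviation: GI50, concentration required for 50% inhibition of growth. TGI: total growth inhibition.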

What was measured:
Assay in all cases: NCI tumour cell line growth inhibition, 48 h
[1] = test system: COLO 205 colon
[2] = test system: HT29 colon
[3] = test system: MDA-MB-435
[4] = test system: OVCAR-8 ovarian
[5] = test system: SF-268 CNS
[6] = test system: SF-295 CNS
[7] = test system: SF-539 CNS
[8] = test system: SK-OV-3 ovarian
[9] = test system: SNB-75 CNS
[10] = test system: SR leukemia

Row | Compound | TGI [1] [µM] | TGI [2] [µM] | TGI [3] [µM] | TGI [4] [µM] | TGI [5] [µM] | TGI [6] [µM] | TGI [7] [µM] | TGI [8] [µM] | TGI [9] [µM] | TGI [10] [µM] | GI50 [1] [µM] | GI50 [2] [µM] | GI50 [3] [µM] | GI50 [4] [µM] | GI50 [5] [µM] | GI50 [6] [µM] | GI50 [7] [µM] | GI50 [8] [µM] | GI50 [9] [µM] | GI50 [10] [µM]
1 | CCSCCC(N)C(=O)O (stereo not given) | > 100 | > 100 | > 100 | > 100 | > 100 | > 100 | > 100 | > 100 | > 100 | > 100 | – | – | – | – | – | – | – | – | – | –
2 | CCOC(=O)CSc1nc(N)c2c(-c3ccc(OC)c(OC)c3)c3c(nc2n1)CCCC3 | > 100 | > 100 | > 100 | 87.4 | > 100 | > 100 | – | > 100 | 32.6 | > 100 | – | – | – | – | – | – | – | – | – | –
3 | CC(=O)Nc1cc([As](=O)(O)O)ccc1O | > 100 | > 100 | > 100 | > 100 | > 100 | > 100 | > 100 | > 100 | > 100 | > 100 | – | – | – | – | – | – | – | – | – | –
4 | CCN(CC)CC(C)Nc1ccc([N+](=O)[O-])c2sc3ccccc3c(=O)c12 (stereo not given) | 3.35 | > 33.2 | 8.33 | > 100 | 18.5 | 9.95 | 7.56 | 13.2 | 17.2 | – | 0.941 | 2.58 | 2.15 | 2.58 | 2.71 | 1.4 | 2 | 1.87 | 3.64 | –
5 | ONc1ncnc2nc[nH]c12 | > 100 | > 100 | – | > 100 | > 100 | > 100 | > 100 | – | > 100 | > 100 | – | – | – | – | – | – | – | – | – | –
6 | O=C(CCCCCCC(=O)Nc1ccc(N(CCCl)CCCl)cc1)NO | 19.9 | 12.7 | 12 | 21 | 3.82 | 10.2 | 14.7 | 15.9 | 10.1 | 3.09 | 4.4 | 1.56 | 1.87 | 1.79 | 1.08 | 1.91 | 2.38 | 3.76 | 1.35 | 0.23
7 | Cc1nc(N)nc(N)c1-c1ccc(Cl)c(Cl)c1 | > 67.5 | > 100 | > 100 | > 100 | > 100 | > 100 | > 100 | > 100 | > 76.4 | > 100 | – | – | – | – | – | – | – | – | – | –
8 | COc1cc(C2C(C(=O)O)=C(CO)Oc3cc4c(cc32)OCO4)cc(OC)c1O (stereo not given) | > 100 | > 100 | – | > 100 | – | > 100 | > 100 | > 100 | > 100 | – | – | – | – | – | – | – | – | – | – | –
9 | CCS(=O)(=O)Nc1ccc(Nc2c3ccccc3nc3ccccc23)c(OC)c1 | 7.28 | 6.56 | – | 7.71 | 12.5 | 3.34 | 4.38 | 5.89 | 3.01 | – | – | – | – | – | – | – | – | – | – | –
10 | CNC(=O)OC(C)CN1c2ccccc2Sc2ccc(Cl)cc21 (stereo not given) | > 10 | > 10 | > 10 | > 10 | > 10 | > 10 | > 10 | > 10 | > 10 | > 10 | – | – | – | – | – | – | – | – | – | –
11 | C[C@]12CC[C@@H]3c4ccc(OP(=O)(O)O)cc4CC[C@H]3[C@@H]1CCC2=O | > 100 | > 100 | > 100 | > 100 | > 100 | > 100 | > 100 | > 100 | > 100 | – | – | – | – | – | – | – | – | – | – | –
12 | CC1SC(c2ccccc2)N(CCc2cccs2)C1=O (stereo not given) | 10.8 | 15.2 | 16.7 | 31.2 | 16.1 | 15.7 | 19.2 | 20.9 | 17.8 | 16.4 | 3.2 | 4.03 | 3.63 | 4.72 | 3.56 | 3.35 | 5.14 | 7.64 | 3.01 | 3.06
13 | Cc1cccc2nc3c(C(=O)NCCN(C)C)cccc3cc12 | 2.62 | 4.54 | – | 6.58 | 5.09 | 4.65 | 4.84 | 7.9 | 6.75 | – | – | – | – | – | – | – | – | – | – | –
14 | COc1ccc2nc(N/N=C/C(C)=N/Nc3cc(C)c4cc(OC)ccc4n3)cc(C)c2c1 | 57.9 | 28.7 | 62.1 | 39.5 | 60.8 | 42.8 | 34.7 | > 100 | 47.7 | 12.8 | – | – | – | – | – | – | – | – | – | –
15 | O=C(N/N=C(/c1ccccc1)C(F)(F)F)c1ccncc1 | > 100 | > 100 | > 100 | > 100 | – | > 100 | – | > 100 | > 100 | > 100 | – | – | – | – | – | – | – | – | – | –
16 | CCOC(=O)c1nc2ccc(Cl)cc2c2c1Cc1ccccc1-2 | > 100 | – | – | > 100 | > 100 | > 100 | > 100 | – | > 100 | > 100 | – | – | – | – | – | – | – | – | – | –
17 | CCCc1[nH]c(SCCCCCCCCSc2nc(-c3ccc(F)cc3)c(CCC)[nH]2)nc1-c1ccc(F)cc1 | > 100 | > 100 | – | > 100 | 16.9 | – | 27.7 | – | 8.5 | > 100 | – | – | – | – | – | – | – | – | – | –
18 | N=c1c2c(C(N)=O)cn(C3OC(CO)C(O)C3O)c2ncn1O (stereo not given) | 1.23 | 9.64 | 0.74 | 0.607 | – | 1.42 | 2.02 | > 36.3 | 4.85 | 0.234 | – | – | – | – | – | – | – | – | – | –
19 | N=C(N)c1ccc(-c2ccc(-c3cc(Cl)cc(Cl)c3)o2)nc1 | 3.78 | 3.69 | 3.38 | 3.83 | 3.46 | 3.63 | 3.25 | 3.51 | 3.15 | 4.8 | 2.01 | 1.76 | 1.76 | 1.88 | 1.82 | 1.92 | 1.76 | 1.95 | 1.64 | 1.78
20 | COc1ccc2nc(-c3ccc(-c4noc(-c5cc(OC)c(OC)c(OC)c5)n4)cc3)[nH]c2c1 | – | 15.2 | 39.8 | 26.4 | 45.6 | 38.3 | 3.83 | 64.8 | 27.4 | – | – | 2.7 | 4.27 | 4.93 | 7.13 | 15 | 2 | 25.3 | 12.5 | –
21 | O=S(=O)(O)c1ccc2cccc(N=Nc3c(O)ccc4ccccc34)c2c1 | > 100 | – | > 100 | > 100 | > 100 | > 100 | > 100 | > 100 | > 100 | > 100 | – | – | – | – | – | – | – | – | – | –
22 | CN(C)CC(=O)Nc1ccc(Cn2nnc3c2C(=O)c2nnn(Cc4ccc(NC(=O)CN(C)C)cc4)c2C3=O)cc1 | 0.253 | – | 0.198 | 0.679 | – | – | 0.502 | 0.222 | 0.342 | – | 0.087 | – | 0.0708 | 0.228 | – | – | 0.197 | 0.0949 | 0.172 | –
